# Test system: Plasmodium falciparum
# Test: GSK_TCMDC: Inhibition of Plasmodium falciparum 3D7 in whole erythrocytes, using parasite LDH activity as an index of growth.
# Type: functional, organism-based
# Conditions: Plasmodium falciparum, 3D7
row,Structure (SMILES),XC50
1,CNc1nc(N/N=C/c2cc3c(cc2[N+](=O)[O-])OCO3)nc(Nc2cccc(C(F)(F)F)c2)n1,771 nM
2,Nc1c2ccccc2nc2cc(Cl)ccc12,715 nM
3,CCc1cc2c3c(N)nc(N)nc3ccc2n1C(C)CC (stereo not given),3.2 nM
4,C=CCOc1ccccc1CNCC(O)c1cc(Br)cs1 (stereo not given),332 nM
5,N#Cc1ccc(N2CCN(Cc3ccc(-c4ccc(-c5nc6ccccc6[nH]5)s4)cc3)CC2)nc1,1080 nM
6,CCCCCCN1CCCN(Cc2ccc(C(=O)Nc3ccc(C)c(F)c3)cc2)CC1,331 nM
7,CCN(CC)CCCC(C)Nc1c(-c2ccc(OC)cc2)cnc2ccccc12 (stereo not given),894 nM
8,Cc1nn(-c2ccnc3cc(Cl)ccc23)c(C)c1C(=O)NCc1cc(Cl)cc(Cl)c1,869 nM
9,O=C(/C=C/c1ccc(Cl)c(Cl)c1)NCCCCCN1CCCC(CNC(=O)Nc2ccc(C(F)(F)F)cc2)C1 (stereo not given),668 nM
10,Fc1ccc2[nH]c(-c3ccc(-c4cccc(CN5CCCCC5)c4)cc3)nc2c1,267 nM
11,Cc1nnnn1-c1ccc(C(=O)N2CCC3(CC2)CN(Cc2ccc(Cl)c(Cl)c2)C(=O)O3)cc1,181 nM
12,O=C(Nc1ccc(NC2=NCCN2)cc1)Nc1ccc(NC2=NCCN2)cc1,845 nM
13,O=C(Nc1ccc(-c2cccc(-c3nc4cc(F)ccc4[nH]3)c2)cc1)c1cnn2cccnc12,647 nM
14,CCc1ccc(-c2nc3cc(NC(=O)c4ccc([N+](=O)[O-])o4)ccc3o2)cc1,250 nM
15,Cc1cc(C)cc(NC(=S)NCCCCN2CCN(c3cccc(Cl)c3)CC2)c1,1350 nM
16,C[C@H](NC(=O)c1c(CN2CCC(N3CCCCC3=O)CC2)c(-c2cccs2)nc2ccccc12)C1CCCCC1,898 nM
17,CC(C)Oc1cc2c(cc1NS(=O)(=O)c1ccc(-c3ccc(Cl)s3)cc1F)CCN(C)CC2,712 nM
18,O=C(/C=C/c1ccc(Cl)c(Cl)c1)NCCCCCN1CCC(NC(=O)c2ccc([N+](=O)[O-])cc2)CC1,672 nM
19,Cc1cc(C(=O)NCc2ccc(-c3c(C)noc3C)cc2)n(-c2ccc(Cl)cc2)n1,531 nM
20,O=C(Nc1cccc(-c2cccc(-c3nc4cc(C(F)(F)F)ccc4[nH]3)c2)c1)c1c[nH]cn1,206 nM

row,Structure (SMILES),XC50
1,C=CCOC(=O)N1CCC(CNCc2cccc(-c3ccc(-c4nc5cccc(C)c5[nH]4)s3)c2)C1 (stereo not given),248 nM
2,COc1ccc(CCN2CCC(Nc3nc4ccccc4n3CCc3ccc(OC)cc3)CC2)cc1,657 nM
3,CS(=O)(=O)NCCCNCc1cccc(-c2cccc(-c3nc4cc(F)ccc4[nH]3)c2)c1,938 nM
4,COc1ccc(-c2ccc(NC(=O)c3cccc(C#N)c3)cc2)cc1CN1CCN(C)CC1,713 nM
5,Oc1ccc2c(c1CNC1CCCCC1)CCCC2,938 nM
6,N#CC(NC(=O)C=Cc1ccccc1)c1ccccc1 (stereo not given),181 nM
7,CC(=O)CC(=O)N1CCN(c2ccccc2)CC1,1060 nM
8,CC(C)c1ccc(CN2CCCCC(NC(=O)c3cc(-c4cccc(F)c4)cs3)C2)cc1 (stereo not given),945 nM
9,Clc1ccccc1CN1CCC(NCc2cccc(-n3ccnc3)c2)CC1,786 nM
10,Cc1cc(NC(=O)Nc2ccc3sccc3c2)c2ccccc2n1,530 nM
11,CNC(=O)c1ccc2nc(-c3ccc(-c4ccccc4)cc3)n(CC3CCN(CC4CCCC4)CC3)c2c1,42.5 nM
12,CCc1c(C)nc(-n2nc(C)cc2NC(=O)c2ccc(OC)cc2OC)[nH]c1=O,827 nM
13,NC1CCN(c2nc(NCCc3ccc(O)cc3)nc(NCc3ccccc3-c3ccc(C(F)(F)F)cc3)n2)CC1,746 nM
14,C#CCCOc1ccc2ccccc2c1CNCCCCCCNCc1c(OCCC#C)ccc2ccccc12,811 nM
15,COc1ccc(NC(=O)Nc2ccc(-c3ccc(-c4nc5cccc(C)c5[nH]4)s3)cc2)cc1,175 nM
16,O=C(/C=C/c1ccc(Cl)c(Cl)c1)N1CCC(CN2CCC(c3c[nH]c4ccccc34)C(O)C2)CC1 (stereo not given),809 nM
17,O=C(Nc1ccccc1Oc1ccccc1)NC1CCN(c2ccnc3cc(Cl)ccc23)C1 (stereo not given),167 nM
18,Oc1ccc(CN2CCN(CCOC(c3ccc(F)cc3)c3ccc(F)cc3)CC2)cc1Cl,935 nM
19,Oc1cc(-c2nc(C3(CNCc4ccc(Cl)cc4)CCCCC3)[nH]c2-c2ccncc2)ccc1Cl,125 nM
20,C#CC(C)(CO)N1CCCC1 (stereo not given),379 nM

# Source: ChEMBL document CHEMBL1157539, “Thousands of chemical starting points for antimalarial lead identification” (Nature, 2010)
